Source: article PMC9934367, “Functional impact of subunit composition and compensation on Drosophila melanogaster nicotinic receptors–targets of neonicotinoids” (PLOS Genetics, 2023)

Tested on: D. melanogaster nAChRs
Assay: Comparison of agonist activity between nAChRs expressed in X. laevis oocytes (one-way ANOVA, Kruskal-Wallis)
Type: cell-based
Procedure: We minimised the use of X. laevis according to the UK Animals (Scientific Procedures) Act, 1986. […] Oocytes were defolliculated after collagenase treatment in Ca^2+-free standard oocyte saline (Ca^2+-free SOS). cRNAs of the nAChR subunits and co-factors mixed at a concentration of 0.1 mg/mL was injected into oocytes at a volume of 50 nL. Then the oocytes were incubated in the incubation medium (SOS supplemented with sodium pyruvate (Nacalai Tesque, #13058–12), penicillin-streptomycin (MilliporeSigma, #P4333), gentamycin (Nacalai Tesque, #16672–04), and 4% horse serum (Thermo Fisher Scientific, #26050–070) for 3−4 days prior to electrophysiology.
Each defolliculated X. laevis oocyte was secured in a Perspex recording chamber and perfused with the standard oocyte saline (SOS) containing 0.5 μM atropine (SOSA) at a flow rate of 7−10 mL/min [48]. Two glass electrodes filled with 2 M KCl were impaled into each oocyte and the membrane potential was clamped at -100 mV. […] The peak amplitude of the response was measured and analysed by pCLAMP (Molecular Devices, USA).
Y=Imax/1+10^(logEC50‐X)nH
Where Y is the normalised response, X is log[ligand (M)], EC50 is the half maximal concentration (M), Imax is the maximum normalised response and nH is the Hill coefficient.
Prism software was employed for the statistical analyses. […] One-way ANOVA was used to analyse the differences of the ligand agonist activity in terms of pEC50 on the various nAChRs expressed in X. laevis as well as data obtained with D. melanogaster larvae and adults.

[1] = Dα1/Dα2/Dα3/Dβ1/Dβ2 vs. Dα1/Dα2/Dβ1/Dβ2/Dβ3
[2] = Dα1/Dα2/Dα3/Dβ1/Dβ2 vs. Dα1/Dα3/Dα4/Dβ1/Dβ2
[3] = Dα1/Dα2/Dα3/Dβ1/Dβ2 vs. Dα1/Dα3/Dβ1/Dβ2/Dβ3
[4] = Dα1/Dα2/Dα3/Dβ1/Dβ2 vs. Dα2/Dα3/Dα4/Dβ1/Dβ2
[5] = Dα1/Dα2/Dα3/Dβ1/Dβ2 vs. Dα2/Dα3/Dβ1/Dβ2/Dβ3
[6] = Dα1/Dα2/Dα3/Dβ1 vs. Dα1/Dα2/Dα3/Dβ1/Dβ2
[7] = Dα1/Dα2/Dα3/Dβ1 vs. Dα1/Dα2/Dβ1/Dβ2
[8] = Dα1/Dα2/Dα3/Dβ1 vs. Dα1/Dα3/Dβ1/Dβ2
[9] = Dα1/Dα2/Dα3/Dβ1 vs. Dα1/Dβ1/Dβ2
[10] = Dα1/Dα2/Dα3/Dβ1 vs. Dα2/Dα3/Dβ1/Dβ2
[11] = Dα1/Dα2/Dα3/Dβ1 vs. Dα3/Dβ1/Dβ2
[12] = Dα1/Dα2/Dβ1/Dβ2 vs. Dα1/Dα2/Dα3/Dβ1/Dβ2
[13] = Dα1/Dα2/Dβ1/Dβ2 vs. Dα2/Dα3/Dβ1/Dβ2
[14] = Dα1/Dα2/Dβ1 vs. Dα1/Dα2/Dα3/Dβ1
[15] = Dα1/Dα2/Dβ1 vs. Dα1/Dα2/Dα3/Dβ1/Dβ2
[16] = Dα1/Dα2/Dβ1 vs. Dα1/Dα2/Dβ1/Dβ2
[17] = Dα1/Dα2/Dβ1 vs. Dα1/Dα3/Dβ1/Dβ2
[18] = Dα1/Dα2/Dβ1 vs. Dα2/Dα3/Dβ1/Dβ2
[19] = Dα1/Dα3/Dβ1/Dβ2 vs. Dα1/Dα2/Dα3/Dβ1/Dβ2
[20] = Dα1/Dα3/Dβ1/Dβ2 vs. Dα1/Dα2/Dβ1/Dβ2
[21] = Dα1/Dα3/Dβ1/Dβ2 vs. Dα2/Dα3/Dβ1/Dβ2
[22] = Dα1/Dα3/Dβ1 vs. Dα1/Dα2/Dα3/Dβ1
[23] = Dα1/Dα3/Dβ1 vs. Dα1/Dα2/Dα3/Dβ1/Dβ2
[24] = Dα1/Dα3/Dβ1 vs. Dα1/Dα2/Dβ1/Dβ2
[25] = Dα1/Dα3/Dβ1 vs. Dα1/Dα3/Dβ1/Dβ2
[26] = Dα1/Dα3/Dβ1 vs. Dα2/Dα3/Dβ1/Dβ2
[27] = Dα1/Dβ1/Dβ2 vs. Dα1/Dα2/Dα3/Dβ1/Dβ2
[28] = Dα1/Dβ1/Dβ2 vs. Dα1/Dα2/Dβ1/Dβ2

SMILES: O=[N+]([O-])NC1=NCCN1Cc1ccc(Cl)nc1 [Imidacloprid, imidacloprid]
- Difference of Imax values, nAChRs compared (Dα1/Dα2/Dα3/Dβ1/Dβ2 vs. Dα1/Dα2/Dα4/Dβ1/Dβ2): -0.030
- Difference of Imax values, nAChRs compared [1]: 0.062
- Difference of pEC50 values, nAChRs compared [1]: 0.21
- Difference of Imax values, nAChRs compared [2]: 0.041
- Difference of pEC50 values, nAChRs compared [2]: -0.83
- Difference of Imax values, nAChRs compared [3]: 0.002
- Difference of pEC50 values, nAChRs compared [3]: -1.25
- Difference of Imax values, nAChRs compared [4]: 0.115
- Difference of pEC50 values, nAChRs compared [4]: -0.93
- Difference of Imax values, nAChRs compared [5]: 0.121
- Difference of pEC50 values, nAChRs compared [5]: -1.28
- Difference of Imax values [6]: -0.048
- Difference of pEC50 values [6]: 0.61
- Difference of Imax values [7]: -0.071
- Difference of pEC50 values [7]: 0.63
- Difference of Imax values [8]: -0.236
- Difference of pEC50 values [8]: -0.44
- Difference of Imax values [9]: 0.018
- Difference of pEC50 values [9]: 0.09
- Difference of Imax values [10]: -0.031
- Difference of pEC50 values [10]: 0.08
- Difference of Imax values [11]: 0.055
- Difference of pEC50 values [11]: -1.20
- Difference of Imax values [12]: 0.023
- Difference of pEC50 values [12]: -0.02
- Difference of Imax values [13]: 0.040
- Difference of pEC50 values [13]: -0.55
- Difference of Imax values [14]: -0.063
- Difference of pEC50 values [14]: -0.37
- Difference of Imax values [15]: -0.111
- Difference of pEC50 values [15]: 0.24
- Difference of Imax values [16]: -0.134
- Difference of pEC50 values [16]: 0.26
- Difference of Imax values [17]: -0.299
- Difference of pEC50 values [17]: -0.81
- Difference of Imax values (Dα1/Dα2/Dβ1 vs. Dα1/Dβ1/Dβ2): -0.045
- Difference of pEC50 values (Dα1/Dα2/Dβ1 vs. Dα1/Dβ1/Dβ2): -0.28
- Difference of Imax values (Dα1/Dα2/Dβ1 vs. Dα2/Dα3/Dβ1): -0.070
- Difference of pEC50 values (Dα1/Dα2/Dβ1 vs. Dα2/Dα3/Dβ1): -0.17
- Difference of Imax values [18]: -0.094
- Difference of pEC50 values [18]: -0.29
- Difference of Imax values (Dα1/Dα2/Dβ1 vs. Dα3/Dβ1/Dβ2): -0.008
- Difference of pEC50 values (Dα1/Dα2/Dβ1 vs. Dα3/Dβ1/Dβ2): -1.57
- Difference of Imax values [19]: 0.188
- Difference of pEC50 values [19]: 1.05
- Difference of Imax values [20]: 0.165
- Difference of pEC50 values [20]: 1.07
- Difference of Imax values [21]: 0.205
- Difference of pEC50 values [21]: 0.52
- Difference of Imax values [22]: 0.076
- Difference of pEC50 values [22]: 0.50
- Difference of Imax values [23]: 0.028
- Difference of pEC50 values [23]: 1.11
- Difference of Imax values (Dα1/Dα3/Dβ1 vs. Dα1/Dα2/Dβ1): 0.139
- Difference of pEC50 values (Dα1/Dα3/Dβ1 vs. Dα1/Dα2/Dβ1): 0.87
- Difference of Imax values [24]: 0.005
- Difference of pEC50 values [24]: 1.13
- Difference of Imax values [25]: -0.160
- Difference of pEC50 values [25]: 0.06
- Difference of Imax values (Dα1/Dα3/Dβ1 vs. Dα1/Dβ1/Dβ2): 0.094
- Difference of pEC50 values (Dα1/Dα3/Dβ1 vs. Dα1/Dβ1/Dβ2): 0.59
- Difference of Imax values (Dα1/Dα3/Dβ1 vs. Dα2/Dα3/Dβ1): 0.069
- Difference of pEC50 values (Dα1/Dα3/Dβ1 vs. Dα2/Dα3/Dβ1): 0.70
- Difference of Imax values [26]: 0.045
- Difference of pEC50 values [26]: 0.58
- Difference of Imax values (Dα1/Dα3/Dβ1 vs. Dα3/Dβ1/Dβ2): 0.131
- Difference of pEC50 values (Dα1/Dα3/Dβ1 vs. Dα3/Dβ1/Dβ2): -0.70
- Difference of Imax values [27]: -0.066
- Difference of pEC50 values [27]: 0.52
- Difference of Imax values [28]: -0.089
- Difference of pEC50 values [28]: 0.54
